Measurements: patent US8106214B2, “2-imino-4-(thio) oxo-5-polycyclovinylazolines for use as PI3 kinase inhibitors” (Merck Serono SA, priority 2003, dated 2012)
Where two headings read alike, the source gives them in different places.

Columns and labels:
[1] = biological target: Human recombinant GST-PI3Kγ (Homo sapiens, UniProt P48736); assay: High Throughput PI3K Lipid Kinase Assay (SPA, neomycin-coated beads); format: biochemical
Protocol: a) High Throughput PI3K Lipid Kinase Assay (Binding Assay):
The assay combines the scintillation proximity assay technology (SPA, Amersham) with the capacity of neomycin (a polycationic antibiotic) to bind phospholipids with high affinity and specificity. The Scintillation Proximity Assay is based on the properties of weakly emitting isotopes (such as ^3H, ^125I, ^33P). Coating SPA beads with neomycin allows the detection of phosphorylated lipid substrates after incubation with recombinant PI3K and radioactive ATP in the same well, by capturing the radioactive phospholipids to the SPA beads through their specific binding to neomycin.
To a 384 wells MTP containing 5 μl of the test compound of Formula (D) (solubilized in 6% DMSO; to yield a concentration of 100, 30, 10, 3, 1, 0.3, 0.1, 0.03, 0.01, 0.001 μM of the test compound), the following assay components are added. 1) 5 μl (58 ng) of Human recombinant GST-PI3Kγ (in Hepes 40 mM, pH 7.4, DTT 1 mM and ethylenglycol 5%) 2) 10 μl of lipid micelles and 3) 10 μl of Kinase buffer ([^33P]γ-ATP 45 μM/60 nCi, MgCl2 30 mM, DTT 1 mM, β-Glycerophosphate 1 mM, Na3VO4 100 μM, Na Cholate 0.3%, in Hepes 40 mM, pH 7.4). After incubation at room temperature for 180 minutes, with gentle agitation, the reaction is stopped by addition of 60 μl of a solution containing 100 μg of neomycin-coated PVT SPA beads in PBS containing ATP 10 mM and EDTA 5 mM. The assay is further incubated at room temperature for 60 minutes with gentle agitation to allow binding of phospholipids to neomycin-SPA beads. After precipitation of the neomycin-coated PVT SPA beads for 5 minutes at 1500×g, radioactive PtdIns(3)P is quantified by scintillation counting in a Wallac MicroBeta™ plate counter.
The values indicated in respect of PI3Kγ refer to the IC50 (μM), i.e. the amount necessary to achieve 50% inhibition of said target. Said values show a considerable potency of the 2-imino-azolinone-vinyl fused-benzene compounds with regard to PI3Kγ.

[2] = tested on: C5a-mediated AKT phosphorylation in Raw 264-7 macrophages; assay: Cell based ELISA: Akt/PKB phosphorylation in macrophages after C5a stimulation; details: Mus musculus, RAW264.7, 5 min; compound at 10 μM; Raw 264-7 macrophages stimulated with 50 nM C5a for 5 minutes; read-out: percentage of inhibition of C5a-mediated AKT phosphorylation
Protocol: b) Cell Based ELISA to Monitor PI3K Inhibition:
Measurement of Akt/PKB phosphorylation in macrophages after stimulation with human recombinant Complement 5a (C5a) from Sigma (C5788): Raw 264: Raw 264-7 macrophages (cultured in DMEM-F12 medium containing 10% Fetal Calf serum and antibiotics) are plated at 20,000 cells/well in a 96 MTP 24 h before cell stimulation. Previous to the stimulation with 50 nM of Complement 5a during 5 minutes, Cells are serum starved for 2 h, and pre-treated with inhibitors for 20 minutes. After stimulation cells are fixed in 4% formaldehyde for 20 minutes and washed 3 times in PBS containing 1% Triton X-100 (PBS/Triton). Endogenous peroxidase is blocked by a 20 minutes incubation in 0.6% H2O2 and 0.1% Sodium Azide in PBS/Triton and washed 3 times in PBS/Triton. Cells are then blocked by 60 minutes incubation with 10% foetal calf serum in PBS/Triton. Next, phosphorylated AKWPKB is detected by an overnight incubation at 4° C. with first antibody (anti phospho Serine 473 Akt IHC, Cell Signalling) diluted 800-fold in PBS/Triton, containing 5% bovine serum albumin (BSA). […] The reaction is stopped by addition of 50 μl of 1 M SO4H2 and absorbance is read at 450 nm. […]

Class I PI3-kinases = details: cited from earlier work

Human recombinant GST-PI3Kγ, sequence (P48736 whole entry): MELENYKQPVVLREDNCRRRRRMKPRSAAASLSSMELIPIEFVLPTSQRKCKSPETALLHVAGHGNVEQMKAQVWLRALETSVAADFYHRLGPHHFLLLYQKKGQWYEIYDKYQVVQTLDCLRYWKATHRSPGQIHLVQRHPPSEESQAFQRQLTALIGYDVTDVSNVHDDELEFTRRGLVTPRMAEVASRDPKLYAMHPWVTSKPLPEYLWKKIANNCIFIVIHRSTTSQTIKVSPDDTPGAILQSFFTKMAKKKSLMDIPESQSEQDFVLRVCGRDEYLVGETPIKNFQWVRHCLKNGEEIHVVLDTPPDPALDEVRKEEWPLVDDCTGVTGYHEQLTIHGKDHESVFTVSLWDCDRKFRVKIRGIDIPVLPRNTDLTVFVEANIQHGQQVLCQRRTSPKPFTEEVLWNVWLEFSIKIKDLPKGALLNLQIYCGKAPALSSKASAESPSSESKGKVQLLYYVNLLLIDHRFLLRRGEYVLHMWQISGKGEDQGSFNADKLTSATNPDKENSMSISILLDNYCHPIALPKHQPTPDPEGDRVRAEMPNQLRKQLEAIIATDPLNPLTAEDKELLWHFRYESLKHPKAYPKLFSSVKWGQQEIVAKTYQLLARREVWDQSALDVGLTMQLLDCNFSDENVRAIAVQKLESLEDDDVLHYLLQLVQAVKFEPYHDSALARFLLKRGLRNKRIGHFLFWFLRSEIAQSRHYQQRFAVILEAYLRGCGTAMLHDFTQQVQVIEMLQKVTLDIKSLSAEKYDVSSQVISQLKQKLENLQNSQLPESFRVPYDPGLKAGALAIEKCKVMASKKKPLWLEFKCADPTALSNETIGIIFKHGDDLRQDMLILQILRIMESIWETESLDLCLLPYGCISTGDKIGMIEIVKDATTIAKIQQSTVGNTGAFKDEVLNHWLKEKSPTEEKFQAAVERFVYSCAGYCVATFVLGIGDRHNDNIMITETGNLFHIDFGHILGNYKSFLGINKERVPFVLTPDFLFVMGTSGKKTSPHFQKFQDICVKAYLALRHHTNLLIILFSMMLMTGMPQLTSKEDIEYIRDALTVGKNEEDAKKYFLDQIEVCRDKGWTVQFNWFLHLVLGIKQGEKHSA

| Compound | IC50 [1] [nM] | further results |
| --- | --- | --- |
| O=C1N/C(=N\S(=O)(=O)c2ccccc2)S/C1=C\c1ccc2c(c1)OCO2 [Example 8, N-(5-Benzo[1,3]dioxol-5-ylmethylene-4-oxo-thiazolidin-2-ylidene)-benzenesulfonamide] | – | inhibition at 10 µM [2]: 100% |
| CO/N=C1\NC(=O)/C(=C/c2ccc3c(c2)OCO3)S1 [Example 20, 5-Benzo[1,3]dioxol-5-ylmethylene-thiazolidine-2,4-dione 2-(O-methyl-oxime)] | < 1000 | – |
| wortmannin | – | IC50 (Class I PI3-kinases; read-out: IC50 values against each of the various Class I PI3-kinases): 1 to 10 nM |
| O=c1cc(N2CCOCC2)oc2c(-c3ccccc3)cccc12 [LY294002] | – | IC50 (Class I PI3-kinases; Fruman et al. 1998, read-out: IC50 values against each of these PI3-kinases): 15000 to 20000 nM |
| CS(=O)(=O)/N=C1\NC(=O)/C(=C/c2ccc3c(c2)OCO3)S1 [Example 10, N-(5-Benzo[1,3]dioxol-5-ylmethylene-4-oxo-thiazolidin-2-ylidene)-methanesulfonamide] | – | inhibition at 10 µM [2]: 80% |
| COC(=O)c1sccc1S(=O)(=O)N=C1NC(=O)/C(=C/c2ccc3ncccc3c2)S1 [Example 16, 3-(4-Oxo-5-quinolin-6-ylmethylene-thiazolidin-2-ylidenesulfamoyl)-thiophene-2-carboxylic acid methyl ester] | < 1000 | – |

The next lines start with results.

| IC50 [1] [nM] | Compound | further results |
| --- | --- | --- |
| < 1000 | N#CN=C1NC(=O)/C(=C/c2ccc3nccnc3c2)S1 [Example 21, 4-Oxo-5-quinoxalin-6-ylmethylene-thiazolidin-2-ylidene-cyanamide] | – |
| < 1500 | O=C1NC(=NCc2ccccc2)S/C1=C\c1ccc2c(c1)OCO2 [Example 22, 5-Benzo[1,3]dioxol-5-ylmethylene-2-benzylimino-thiazolidin-4-one] | – |
| < 1000 | CN=C1NC(=O)/C(=C/c2ccc3ncnc(N(C)C)c3c2)S1 [Example 26, 5-(4-Dimethylamino-quinazolin-6-ylmethylene)-2-methylimino-thiazolidin-4-one] | – |
